The test system of test [1] is human breast cancer MCF-7. The experiment in a line: MTT antiproliferative assay, MCF-7. In kind it is cell-based. As to conditions: Homo sapiens, MCF7, 48 h, 0–50 μM, read-out: Antiproliferative activity IC50 ± SEM, MCF-7. As for the experimental part:
(§1) The in vitro antiproliferative activity of 33 TMPH compounds was evaluated by MTT assay ([Medica et al., 2022]). Five types of TNBC-related cell lines (human breast cancer MCF-7 and MDA-MB-231, mouse breast cancer 4T1, mouse fibroblast L929, and human umbilical vein endothelial HUVEC cell lines) were used. The cell lines were obtained from the Shanghai Institute of Biochemistry and Cell Biology of the Chinese Academy of Sciences (Shanghai, China). The cell lines were cultured in DMEM supplemented with 1% penicillin–streptomycin solution (100×) and 10% FBS at 37°C under a humid atmosphere containing 5% CO2. After cell passage, cryopreservation, and resuscitation, the growth-inhibitory effects against the five cell lines were determined by MTT assay. The 33 TMPH compounds and the reference control drug cisplatin were dissolved in 0.1% DMSO solution. The cell lines were maintained in 96-well plates and subjected to each test compound (0–50 μM) at 37°C for 48 h. After treatment with 1 mg/ml MTT solution for 4 h, the formazan crystals were dissolved in each well. A microplate reader (Varioskan Flash 3001, Thermo Scientific) was used to determine the cell viability at 490 nm, and each experiment was repeated four times. The collected data were expressed as the mean ± SEM. The inhibitory concentration of the 34 compounds at 50% (IC50) was calculated via concentration–inhibition relationship regression by SPSS software.

Test [2] relates to human breast cancer MDA-MB-231. Put plainly: MTT antiproliferative assay, MDA-MB-231. The test is classed as cell-based. As to conditions: for IC50: Homo sapiens, MDA-MB-231, MTT, 48 h, 0–50 μM, read-out: Antiproliferative activity IC50 ± SEM, MDA-MB-231; for SI, selectivity index: SI = IC50 (L929)/IC50 (MDA-MB-231). How it is done: as §1
(Tetrazolium dyes change colour on reduction, which living cells bring about.)

Another test concerns mouse breast cancer 4T1. Put plainly: MTT antiproliferative assay, 4T1. As to conditions: Mus musculus, 48 h, 0–50 μM, read-out: Antiproliferative activity IC50 ± SEM, 4T1. The test is classed as cell-based. As for the experimental part:
as §1

For another test, the system named is mouse fibroblast L929. The experiment in a line: MTT antiproliferative assay, L929. In kind it is cell-based. As to conditions: Mus musculus, L929, 48 h, 0–50 μM, read-out: Antiproliferative activity IC50 ± SEM, L929. How it is done: as §1
Test [3] deals with human umbilical vein endothelial HUVEC. The experiment in a line: MTT antiproliferative assay, HUVEC. In kind it is cell-based. As to conditions: Homo sapiens, HUVEC, 48 h, 0–50 μM, read-out: Antiproliferative activity IC50 ± SEM, HUVEC. How it is done: as §1
The subject of test [4] is MCF-7, MDA-MB-231, 4T1, L929 and HUVEC cell lines. Put plainly: MTT antiproliferative assay, statements over all five tested cell lines. Conditions: range over all five tested cell lines, read-out: IC50 values ranging over the tested cell lines. In kind it is cell-based. How it is done: as §1
Test [5] deals with MDA-MB-231 cells. Put plainly: Clonal formation assay of MDA-MB-231 cells. In kind it is cell-based, human. As to conditions: 0.5, 1.0 and 2.0 μM for 10 days. How it is done:
Human breast cancer MDA-MB-231 cells were cultured in a six-well plate with 1,500 cells per well and incubated for 24 h at 37°C under a humid atmosphere containing 5% CO2. Then, the MDA-MB-231 cells were incubated with compound 12–9 at final concentrations of 0, 0.5, 1.0, and 2.0 μM for 10 days. The treated cells were washed with PBS and fixed with 4% paraformaldehyde for 15 min at room temperature. Then, the end product of the cell colonies was visualized by staining with 0.1% crystal violet for 10 min. The images were photographed using a handy camera, and the number of cell colonies was assessed using open Image J software (National Institutes of Health). Each experiment was repeated three times. A group of >50 cells was defined as one colony formation.

Test [6] relates to MDA-MB-231 cells. The experiment in a line: Hoechst 33 342 staining of MDA-MB-231 cells. Conditions: 1.0 μM, 48 h. The test is classed as cell-based, human. How it is done:
The induction of apoptosis by compound 12–9 was visually evaluated in MDA-MB-231 cells by Hoechst 33 342 staining. The test cells were transferred to six-well plates at a density of 1 × 10^5 cells. […] Then, the MDA-MB-231 cells were stained with Hoechst 33 342 solution (10 μg/ml in the culture medium, Beyotime Institute of Biotechnology, Shanghai, China) at 37°C in a dark room for 20 min after incubation with the test compound 12–9. The cells were then washed twice with a serum-free medium to remove the leftover dye. The apoptotic cells stained by Hoechst 33 342 were imaged using CLSM (Carl-Zeiss LSM 710).

Test [7] relates to MDA-MB-231 cells. The experiment in a line: Apoptosis analysis by annexin V-FITC/PI staining (flow cytometry). Conditions: 48 h; for apoptotic ratio: control 13.7%. The test is classed as cell-based, human. How it is done:
Apoptosis induced by TMPH compound 12–9 was evaluated by annexin V-FITC/PI staining. Briefly, MDA-MB-231 cells in the logarithmic growth phase were cultured in a six-well plate and incubated for 24 h at 37°C under a humid atmosphere containing 5% CO2. […] The incubated cells were washed twice with PBS, digested by trypsin, and centrifuged at 1,000 rpm for 5 min. The collected MDA-MB-231 cells were transferred to a 1.5-ml tube and resuspended in a solution of 200 μl of annexin V-FITC and 5 μl of PI. After incubation in a dark environment (covered with aluminum foil) for 15 min at room temperature, the collected cells were evaluated by flow cytometry (CyFlow®Cube 6, Sysmex). The apoptosis analysis data were shown as a pseudo color map and analyzed by FlowJo software.
(In general: In flow cytometry, cells or beads pass a laser one at a time.)

As usually defined, the IC50 is the midpoint of a concentration-inhibition curve. Consider `Cc1nc(C)c(C(=O)NCCCCCCCCCCNC(=O)c2ccc3cc[nH]c3c2)nc1C` [10–9], for which the IC50 in test [1] is 3.37 ± 0.19 µM; in test [2] it was 6.01 ± 0.11 µM; in the test with mouse breast cancer 4T1, 3.12 ± 0.14 µM; in the test with mouse fibroblast L929 it was 7.37 ± 0.57 µM; in [3] it was 9.63 ± 0.53 µM; in [4] it was 1.61 to 19.5 µM. Moreover, the “SI, selectivity index” value in test [2] was 1.23.

As for `Cc1nc(C)c(C(=O)NCCCCCCCCCCNC(=O)c2ccc3ccccc3c2)nc1C` [10–13], the IC50 in test [1] was 3.09 ± 0.13 µM; in test [2], 4.6 ± 0.29 µM; with mouse breast cancer 4T1, 9.88 ± 0.22 µM; in the test with mouse fibroblast L929, 12.64 ± 0.12 µM; in test [3], 10.5 ± 1.24 µM; in test [4], 1.61 to 19.5 µM. Besides, in test [2], the “SI, selectivity index” value stood at 2.75.

In the case of `Cc1nc(C)c(C(=O)NCCCCCCCCCCCCNC(=O)C=Cc2ccccc2)nc1C` [12–1], the IC50 is 1.95 ± 0.06 µM in [1]; 2.78 ± 0.37 µM in [2]; 2.66 ± 0.05 µM in the test with mouse breast cancer 4T1; 4.75 ± 0.26 µM in the test on mouse fibroblast L929; 13.2 ± 1.12 µM in [3]; 1.61 to 19.5 µM in test [4]. The “SI, selectivity index” value in test [2] came to 1.71.

With `Cc1nc(C)c(C(=O)NCCCCCCCCCCCCNC(=O)c2cc3ccccc3o2)nc1C` [12–2], the IC50 in [1] is 2.71 ± 0.07 µM; in test [2], 3.38 ± 0.12 µM; with mouse breast cancer 4T1, 3.97 ± 0.01 µM; in the test with mouse fibroblast L929 it was 3.78 ± 0.14 µM; in test [3], 11 ± 0.68 µM; in test [4], 1.61 to 19.5 µM. Besides, the “SI, selectivity index” value in test [2] was 1.12.

As to `Cc1nc(C)c(C(=O)NCCCCCCCCCCCCNC(=O)c2cc3ccccc3s2)nc1C` [12–3], the IC50 is 3.26 ± 0.16 µM in test [1]; 2.12 ± 0.06 µM in [2]; 5.13 ± 0.28 µM with mouse breast cancer 4T1; 7.65 ± 0.06 µM in the test with mouse fibroblast L929; 7.86 ± 0.01 µM in [3]; 1.61 to 19.5 µM in [4]. Moreover, the “SI, selectivity index” value in test [2] stood at 3.61.

In the case of `Cc1nc(C)c(C(=O)NCCCCCCCCCCCCNC(=O)c2cnc3ccccc3c2)nc1C` [12–5], the IC50 in [1] is 1.36 ± 0.06 µM; in [2] it was 2.39 ± 0.12 µM; in the test with mouse breast cancer 4T1, 3.5 ± 0.06 µM; with mouse fibroblast L929 it was 4.18 ± 0.05 µM; in [3], 11.4 ± 0.44 µM; in [4], 1.61 to 19.5 µM. Besides, in test [2], the “SI, selectivity index” value came out at 1.75.

Take `Cc1nc(C)c(C(=O)NCCCCCCCCCCCCNC(=O)c2ccc3ncccc3c2)nc1C` [12–6]: the IC50 in test [1] was 2.04 ± 0.03 µM; in test [2], 1.98 ± 0.15 µM; in the test with mouse breast cancer 4T1 it was 4.18 ± 0.09 µM; in the test on mouse fibroblast L929, 5.35 ± 0.17 µM; in test [3], 7.03 ± 0.05 µM; in test [4], 1.61 to 19.5 µM. Moreover, the “SI, selectivity index” value in test [2] was 2.70.

Take `Cc1nc(C)c(C(=O)NCCCCCCCCCCCCNC(=O)c2ccc3cc[nH]c3c2)nc1C` [12–9]: the IC50 in [1] is 1.11 ± 0.15 µM; in test [2] it was 0.84 ± 0.02 µM; in the test with mouse breast cancer 4T1, 1.16 ± 0.18 µM; in the test with mouse fibroblast L929, 3.16 ± 0.13 µM; in test [3] it was 3.82 ± 0.24 µM; in [4], 1.61 to 19.5 µM. For the same molecule, the “SI, selectivity index” value in test [2] came out at 3.76. In addition, the “colony formation versus untreated control” value in the test on MDA-MB-231 cells [5] was “significantly fewer and smaller”. Further, the “apoptotic morphology, Hoechst 33 342 staining” value in the test with MDA-MB-231 cells [6] was “appeared shrunken and showed strong blue fluorescence”. The “Q1, necrotic cells (annexin V−/PI+)” value with MDA-MB-231 cells [7] (0.5 μM) is listed as 0.20; with MDA-MB-231 cells [7] (1.0 μM), 0.37; with MDA-MB-231 cells [7] (2.0 μM), 1.03. The results for the “Q2, late apoptotic or necrotic cells (annexin V+/PI+)” value in the test with MDA-MB-231 cells [7] (0.5 μM), in the test with MDA-MB-231 cells [7] (1.0 μM) and with MDA-MB-231 cells [7] (2.0 μM) were 15.2, 24.8 and 35.3, respectively. Also, the “Q3, early apoptotic cells (annexin V+/PI−)” value in the test with MDA-MB-231 cells [7] (0.5 μM) was 8.76; with MDA-MB-231 cells [7] (1.0 μM), 7.84; with MDA-MB-231 cells [7] (2.0 μM) it was 11.6. In addition, the figures for the “Q4, living cells (annexin V−/PI−)” value in the test with MDA-MB-231 cells [7] (0.5 μM), with MDA-MB-231 cells [7] (1.0 μM) and in the test with MDA-MB-231 cells [7] (2.0 μM) were 75.9, 67.0 and 52.1, respectively. In addition, the values for the apoptotic ratio in the test with MDA-MB-231 cells [7] (0.5 μM), in the test with MDA-MB-231 cells [7] (1.0 μM) and in the test with MDA-MB-231 cells [7] (2.0 μM) were 23.96%, 32.64% and 46.9%, respectively.

As for `Cc1nc(C)c(C(=O)NCCCCCCCCCCCCNC(=O)C=Cc2ccc(Cl)cc2)nc1C` [12–10], the IC50 was 2.09 ± 0.06 µM in [1]; 2.42 ± 0.06 µM in test [2]; 1.63 ± 0.03 µM with mouse breast cancer 4T1; 3.82 ± 0.07 µM in the test with mouse fibroblast L929; 12.37 ± 0.09 µM in test [3]; 1.61 to 19.5 µM in [4]. Also, the “SI, selectivity index” value in test [2] came to 1.58.

Turning to `COc1cc(C=CC(=O)NCCCCCCCCCCCCNC(=O)c2nc(C)c(C)nc2C)cc(OC)c1OC` [12–12], the IC50 in [1] was 2.21 ± 0.15 µM; in test [2], 1.64 ± 0.12 µM; with mouse breast cancer 4T1, 2.69 ± 0.04 µM; with mouse fibroblast L929, 18.9 ± 0.44 µM; in test [3] it was 12.2 ± 0.2 µM; in test [4], 1.61 to 19.5 µM. Further, in [2], the “SI, selectivity index” value is 11.50.

As for `Cc1nc(C)c(C(=O)NCCCCCCCCCCCCNC(=O)c2ccc3ccccc3c2)nc1C` [12–13], the IC50 in test [1] is 1.61 ± 0.08 µM; in test [2] it was 5.01 ± 0.16 µM; with mouse breast cancer 4T1, 4.76 ± 0.45 µM; with mouse fibroblast L929, 8.89 ± 0.12 µM; in [3], 10.7 ± 1.06 µM; in [4], 1.61 to 19.5 µM. The “SI, selectivity index” value in test [2] is 1.77.

The values above are taken from paper PMC9358002, “Synthesis and Discovery of Ligustrazine–Heterocycle Derivatives as Antitumor Agents” (Frontiers in Chemistry, 2022).
